We go through two molecules from patent US20240108610A1, “RECTAL ADMINISTRATION OF ROFLUMILAST FOR THE TREATMENT OF CROHN'S DISEASE” (King Abdulaziz University, priority 2022, published 2024).

Holding throughout (assay type): in vivo, rat
The subject of experiment [1] is trinitrobenzenesulfonic acid (TNBS)-induced colitis. Nature of the experiment: Disease activity score in TNBS-induced chronic colitis. The note with it: oral, once daily for 15 days; sulfasalazine 500 mg/kg, roflumilast 5 mg/kg; vs TNBS group. As to the method:
Chronic colitis was induced by weekly rectal injections of increasing doses of TNBS over 6 weeks (15, 30, 45, 60, 60, and 60 mg from day 0 to day 35), as previously described (4,12). Briefly, after food deprivation for 24 h, rats were anesthetized with an intraperitoneal injection of 1% isoflurane. TNBS was dissolved in ethanol (50%) and instilled into the colon using a cannula (0.25 mL), and then the rats were held upside down for 3 min to prevent escape of the intracolonic TNBS. Roflumilast was dissolved in dimethyl sulfoxide and diluted in 0.5% carboxymethyl cellulose sodium to a final concentration of 5.0 mg·kg^−1·day^−1 as previously described (13). […] At the end of the treatment period, the rats were evaluated with the colitis activity score. […] At the end of the 15-day treatment period, the rats were sacrificed by cervical dislocation, and the colon was isolated, cleaned of feces, and measured for weight and length. Colonic myeloperoxidase (MPO) activity and glutathione (GSH) and malonaldehyde (MDA) levels were measured. […] The colitis activity index was determined to evaluate the activity of intestinal inflammation as previously described with a slight modification (16). […]

A further experiment concerns TNF-α. Nature of the experiment: Serum TNF-α ELISA in TNBS-induced colitis. The note with it: means±SE, n = 8. As to the method: Chronic colitis was induced by weekly rectal injections of increasing doses of TNBS over 6 weeks (15, 30, 45, 60, 60, and 60 mg from day 0 to day 35), as previously described (4,12). Briefly, after food deprivation for 24 h, rats were anesthetized with an intraperitoneal injection of 1% isoflurane. TNBS was dissolved in ethanol (50%) and instilled into the colon using a cannula (0.25 mL), and then the rats were held upside down for 3 min to prevent escape of the intracolonic TNBS. Roflumilast was dissolved in dimethyl sulfoxide and diluted in 0.5% carboxymethyl cellulose sodium to a final concentration of 5.0 mg·kg^−1·day^−1 as previously described (13). Five groups of rats (n=8) were established: normal control (NC group), TNBS-treated (TNBS group, positive control), and three TNBS-treated groups that received oral sulfasalazine (SS group, 500 mg/kg) (14), oral roflumilast (by gastric gavage, OR group, 5 mg/kg), or rectal roflumilast (RR group, 5 mg/kg). Treatments were administered once daily in a volume of 200 μL for 15 days starting 48 h after the induction of colitis (from day 37) (15), and the control rats received equal amounts of vehicle. At the end of the treatment period, the rats were evaluated with the colitis activity score. To detect the effects of the treatments on systemic inflammatory processes, blood was collected for measurements of the proinflammatory mediators TNF-α, IL-2, and IL-6. At the end of the 15-day treatment period, the rats were sacrificed by cervical dislocation, and the colon was isolated, cleaned of feces, and measured for weight and length. Colonic myeloperoxidase (MPO) activity and glutathione (GSH) and malonaldehyde (MDA) levels were measured. The colon was examined macroscopically for gross changes and microscopically in sections stained with hematoxylin and eosin (H&E), Masson trichrome, and Periodic Acid Schiff (PAS) stains as well as KI-67 and TNF-α immunostaining. Blood was collected through cardiac puncture. The serum was obtained and stored at −80° C. until analysis. […]
In general terms: ELISA stands for enzyme-linked immunosorbent assay.

Experiment [2] has as its system trinitrobenzenesulfonic acid (TNBS)-induced colitis. Nature of the experiment: Histopathological examination of colonic sections (H&E, Masson trichrome, PAS). As to the method:
Chronic colitis was induced by weekly rectal injections of increasing doses of TNBS over 6 weeks (15, 30, 45, 60, 60, and 60 mg from day 0 to day 35), as previously described (4,12). Briefly, after food deprivation for 24 h, rats were anesthetized with an intraperitoneal injection of 1% isoflurane. TNBS was dissolved in ethanol (50%) and instilled into the colon using a cannula (0.25 mL), and then the rats were held upside down for 3 min to prevent escape of the intracolonic TNBS. Roflumilast was dissolved in dimethyl sulfoxide and diluted in 0.5% carboxymethyl cellulose sodium to a final concentration of 5.0 mg·kg^−1·day^−1 as previously described (13). Five groups of rats (n=8) were established: normal control (NC group), TNBS-treated (TNBS group, positive control), and three TNBS-treated groups that received oral sulfasalazine (SS group, 500 mg/kg) (14), oral roflumilast (by gastric gavage, OR group, 5 mg/kg), or rectal roflumilast (RR group, 5 mg/kg). Treatments were administered once daily in a volume of 200 μL for 15 days starting 48 h after the induction of colitis (from day 37) (15), and the control rats received equal amounts of vehicle. At the end of the treatment period, the rats were evaluated with the colitis activity score. To detect the effects of the treatments on systemic inflammatory processes, blood was collected for measurements of the proinflammatory mediators TNF-α, IL-2, and IL-6. At the end of the 15-day treatment period, the rats were sacrificed by cervical dislocation, and the colon was isolated, cleaned of feces, and measured for weight and length. Colonic myeloperoxidase (MPO) activity and glutathione (GSH) and malonaldehyde (MDA) levels were measured. The colon was examined macroscopically for gross changes and microscopically in sections stained with hematoxylin and eosin (H&E), Masson trichrome, and Periodic Acid Schiff (PAS) stains as well as KI-67 and TNF-α immunostaining. The colonic segments were fixed in 10% buffered formalin and embedded in paraffin. Afterwards, 3-5-μm-thick sections were made and stained with H&E, Masson's trichrome for collagen, and PAS for […] and mucopolysaccharides. The severity of the lesions was evaluated by a blinded histopathologist as normal, mild, moderate, or marked injury (21).

Setting [3] is: oral, once daily for 15 days, SS 500 mg/kg, OR 5 mg/kg.
Where [4] appears, read: rectal, 5 mg/kg once daily for 15 days.
The mark [5] stands for this setting: oral, once daily for 15 days, sulfasalazine 500 mg/kg, roflumilast 5 mg/kg.

Take `O=C(Nc1c(Cl)cncc1Cl)c1ccc(OC(F)F)c(OCC2CC2)c1` [roflumilast]: in experiment [1], the Disease activity score entry is recorded as “decreased the score more than rectal roflumilast”. Moreover, the “serum level of TNF-α” value in the experiment with TNF-α (setting [3]) is reported as 38.87 ± 2.33^a, b, f pg/mL. In addition, in the experiment on TNF-α (setting [4]), the “serum level of TNF-α” value is 79.37 ± 1.88^a, c, e pg/mL. Besides, in experiment [2] (setting [5]), the PAS-stained goblet cells entry was “moderate population”; the “collagen deposition, Masson trichrome” value is recorded as “moderate decrease”; the “colonic sections stained with H&E, improvement” value (from here on “colonic sections stained”) was “moderate improvement”. Besides, in experiment [2] (setting [4]), the PAS-stained goblet cells entry is given as “small population”; the “collagen deposition, Masson trichrome” value is listed as “mild decrease”; the “colonic sections stained” value was “mild improvement”.
Turning to `O=C(O)c1cc(/N=N/c2ccc(S(=O)(=O)Nc3ccccn3)cc2)ccc1O` [sulfasalazine], in experiment [1], the Disease activity score result was “greatest decrease”. In the experiment with TNF-α (setting [3]), the “serum level of TNF-α” value is listed as 28.93 ± 0.5^b, d pg/mL. Besides, in experiment [2] (setting [5]), the PAS-stained goblet cells result is “nearly normal population”; the “collagen deposition, Masson trichrome” value is on record as “marked decrease”; the “colonic sections stained” value was “marked improvement”.
